Measurements taken from publication PMC10058583, “Development of Novel Fluorinated Polyphenols as Selective Inhibitors of DYRK1A/B Kinase for Treatment of Neuroinflammatory Diseases including Parkinson’s Disease” (Pharmaceuticals, 2023).
Like-named read-outs stand apart in the source and are kept apart here.

How the values were obtained:
[1] = tested on: LPS-induced inflammation in C57BL/6J mice; experiment: LPS-induced inflammation model; assay type: in vivo, mouse
Experimental: Neuroinflammation is an important factor contributing to cognitive impairment and neurodegenerative diseases such as PD, and the administration of LPS is frequently used to study neuroinflammation-associated diseases in mice.
Each group consisted of six male mice. […] Animals were pretreated for 3 days with the drug of choice; then, treatment with LPS commenced on day 0, and on the 5th day of LPS treatment, the drug was administered half an hour before LPS injection. One hour after LPS treatment, the animals were anesthetized with a mixture of ketamine, xylazine 2%, atropine, and saline (4:2.5:1:2.5). The body temperature of mice under anesthesia was maintained by applying a heating blanket and monitored using a rectal thermometer. After anesthesia, the animals underwent cardiac perfusion with ice-cold saline for three minutes (3 mL/minute via peristaltic pump) via the left ventricle. The right atrium was cut as an outflow route. The right hemisphere was post-fixed overnight in 4% PFA in PBS at 4 °C and stored in 1xPBS containing 0.1% (v/w) sodium azide at 4 °C. The left hemisphere, hippocampus, cortex, midbrain, and brainstem were microdissected, immersed in liquid nitrogen in separate tubes (with one-fifth of the rest of the brain tissue), and stored in microfuge tubes at −80°. TNFα (in both plasma and the hippocampus) was analyzed with ELISA, and the p-tau (AT-8 antibody) level was recorded in the hippocampus and cortex with WB.

[2] = Pharmacokinetic studies in C57BL/6 mice (plasma and tissues); assay type: in vivo, mouse; conditions: for AUC(0-t) / Cmax / Tmax / AUC(0-inf) / half-life / bioavailability: both sexes, C57BL/6, mouse; for bioavailability: read-out: F (absolute bioavailability)
Experimental: To overcome the generally poor PK profile of catechins, we developed a proprietary formulation that allows for the delivery of these drugs in high concentrations for oral (PO) or intranasal (IN) use. Our liquid formulation is based on the solubilizer and penetration enhancer (2-hydroxypropyl)-β-cyclodextrin (HP-β-CD), PEG-400, and water. This vehicle allows us to achieve high drug concentration in dosing solution (up to 20% w/w) when needed. PK studies were conducted for 1c in adult male and female C57BL/6 mice (n = 3/sex/time point) using (1) a single IV dose (5 mg/kg), (2) an IN dose (60 mg/kg, 5 µL of a clear solution/nostril/twice), and (3) a single PO dose (100 mg/kg). We analyzed the concentration of the drug in several tissues, including the brain, lungs, liver, and plasma. We observed that this class of molecules is stable in circulation; however, when the tissues are harvested for bioanalytical work, the drug undergoes rapid degradation, probably because of the direct contact with oxygen and metals, which catalyzes its rapid degradation/oxidation. We were able to stabilize the drug in blood by the immediate addition of ascorbic acid and TCEP [29]; however, the same was not possible with solid organs such as the brain and liver, which need to be collected through surgery and homogenized before any stabilizing agent can be added. Therefore, tissue PK data tend to vary.
C57BL/6J mice were given a single dose of drug via the IN or PO route. […] For PO delivery, we replaced water with saline. The volume for IN delivery was 5 µL/nostril, and the volume used for oral delivery was 10 mL/kg. After sacrifice, blood (500 µL) was collected into K2EDTA microtubes and kept on ice all times (must be centrifuged within 30 min of collection). Blood was centrifuged in EDTA vacuum at 4 °C at 15,000× g for 4 min; ~250 µL of plasma was collected into polyethylene tubes containing 50 µL of AA/TCEP stabilizing solution (20 mM ascorbic acid and 13 mM TCEP in 50 mM K2HPO4 buffer; the pH of the solution was adjusted to 6.5 using 2 M NaOH). Then, 200 µL of the collected plasma was mixed with (1) 24 µL of a solution of 10% ascorbic acid and 0.1% EDTA in 40 mM NaH2PO4; (2) 40 µL of 50 mM sodium phosphate (pH 7.4); (3) 500 units of β-D-glucuronidase type X-A from Escherichia coli (Sigma Chemical Co, St Louis, MO, USA), and (4) 4 units of sulfatase type VIII from abalone entrails (Sigma Chemical Co). The mixture was incubated at 37 °C for 45 min. Plasma was then extracted by the addition of 0.5 mL ACN; the mixture was vortex-mixed for 2 min, then snap-frozen with isopropanol/carbon dioxide dry ice, and the upper layer of ACN was removed. The process was repeated another 2 times. The ACN fractions were pooled into a polyethylene tube kept on ice. The combined fractions were evaporated under a gentle stream of nitrogen at ambient temperature. The residue obtained after evaporation was reconstituted in 200 µL of 75 mM citric acid//25 mM ammonium acetate: ACN (75:25 by vol), and vortexed vigorously for 5 min, and 20 µL of the resulting solution was injected into the LC-MS/MS column.
Drug analysis in tissues: About ~0.4 g of the tissue was homogenized with 1 mL of ice-cold 0.4 M sodium phosphate buffer containing 6 mg of ascorbic acid and 0.5 mg of Na2EDTA (final pH of 6.5). After centrifugation at 4 °C at 15,000× g for 4 min, the supernatant was collected into polyethylene tubes containing 50 µL of the AA/TCEP stabilizing solution. Then 1 U of sulfatase and 250 U of β-glucuronidase were added to the abovementioned homogenized mixture. Samples were incubated at 37 °C for 45 min, then extracted, dried, and resuspended in a manner similar to that for plasma. Samples were then analyzed by LC-MS/MS.

[3] = PO 30 mg/kg BID, from 3 days before LPS (i.p. 750 µg/kg, 5 days)
[4] = inhaled or intranasal, IN (60 mg/kg), brain
[5] = inhaled or intranasal, IN (60 mg/kg), plasma

COc1cc(C(=O)O[C@@H]2Cc3c(O)cc(O)cc3O[C@H]2c2cc(O)c(O)c(O)c2)c(F)c(O)c1O [Compound 1c]
inhibition of tau phosphorylation ([1]; IN 30 mg/kg BID, LPS i.p. 750 µg/kg): lack of efficacy
tau phosphorylation in the hippocampus ([1]; PO 30 mg/kg BID, LPS i.p. 750 µg/kg): reduced tau phosphorylation
TNFα accumulation in plasma [1, 3]: significantly (p < 0.05) decreasing
TNFα accumulation in the brain [1, 3]: significantly (p < 0.05) decreasing
Tlast ([2]; IN (60 mg/kg), brain): 8 h
Tlast ([2]; IN (60 mg/kg), plasma): 24 h
Tlast ([2]; PO (100 mg/kg), brain): 24 h
Tlast ([2]; PO (100 mg/kg), plasma): 24 h
AUC(0-t) ([2]; PO (100 mg/kg), brain): 2390 ng·h/mL
Cmax ([2]; PO (100 mg/kg), brain): 110 ng/mL
Tmax ([2]; PO (100 mg/kg), brain): 2 h
AUC(0-inf) ([2]; PO (100 mg/kg), plasma): 4280 ng·h/mL
AUC(0-t) ([2]; PO (100 mg/kg), plasma): 4170 ng·h/mL
Cmax ([2]; PO (100 mg/kg), plasma): 684 ng/mL
Tmax ([2]; PO (100 mg/kg), plasma): 1 h
half-life ([2]; PO (100 mg/kg), plasma): 4.7 h
AUC(0-t) [2, 4]: 116 ng·h/mL
Cmax [2, 4]: 18 ng/mL
Tmax [2, 4]: 0.5 h
AUC(0-inf) [2, 5]: 16100 ng·h/mL
AUC(0-t) [2, 5]: 15800 ng·h/mL
Cmax [2, 5]: 2350 ng/mL
Tmax [2, 5]: 2 h
half-life [2, 5]: 4.8 h
AUC(0-inf) ([2]; plasma, iv, i.v. (5mg/kg)): 1390 ng·h/mL
AUC(0-t) ([2]; plasma, iv, i.v. (5mg/kg)): 1280 ng·h/mL
Cmax ([2]; plasma, iv, i.v. (5mg/kg)): 657 ng/mL
Tmax ([2]; plasma, iv, i.v. (5mg/kg)): 0 h
half-life ([2]; plasma, iv, i.v. (5mg/kg)): 3.2 h
bioavailability ([2]; plasma, other: intranasal (IN), 60 mg/kg, IN (60 mg/kg), plasma): 100%
bioavailability ([2]; plasma, po, 100 mg/kg, PO (100 mg/kg), plasma): ~16%
Tlast ([2]; i.v. (5mg/kg)): 10 h
